Key:
[1] = system: primary cultures of neurons, isolated from the rat brain cortex; experiment: Neuroprotection assay: Ionomycin-evoked neuron cell death (LDH release); type: cell-based; settings: FIG. 4
Procedure: (§1) Primary cortical neuron cultures.
Assessment of neuron cell death.
The neurons were treated in vitro with 5 μM of Ionomycin (Sigma), a calcium ionophore, in presence of 10 μM of 1-Naphthol, in absence or in presence of 5 or 10 μM of 3-methylcholanthrene (3-MC, Aldrich), an UGT inducer which allows the in situ glucuronidation of 1-Naphthol.

[2] = system: primary cultures of neurons isolated from the rat brain cortex; experiment: Glutamate level determination (chemiluminescent enzymatic assay); type: cell-based; settings: FIG. 5
Procedure: as §1
Assessment of glutamate release. Glutamate released by neurons in culture was evaluated in aliquots of the supernatants by means of a chemiluminescent enzymatic assay (Israel et al., Neurochem Int. 1993 Jan. 22(1):53-8).
The glutamate released by neurons was followed by an enzymatic assay coupled to a chemiluminescent reaction. […]

[3] = system: primary cultures of neurons, isolated from the rat brain cortex; settings: 3-NP 400 μM, 24 hours; compound at 0.1, 1 and 5 μM; FIG. 2

**Q.** For `Cc1ccc2cc3c(ccc4ccccc43)c3c2c1CC3` [3-Methylcholanthrene, 3-methylcholanthrene, reference compound], which “protective effect against the toxicity induced by Ionomycin” value ([1]; Ionomycin 5 μM, compound alone at 5 or 10 μM (lanes 5, 6)) is on record?
**A.** no protective effect against the toxicity induced by Ionomycin

**Q.** And the “effect on the natural death of neurons” value ([1]; compound alone at 5 or 10 μM, no Ionomycin (lanes 2, 3))?
**A.** no effect on the natural death of neurons

**Q.** What about the “glutamate release by neurons” value ([2]; compound alone at 5 μM (lane 3)) of the same molecule?
**A.** have no effect on glutamate release

**Q.** `Oc1cccc2ccccc12` [1-Naphthol] was tested. Which “protective effect with in situ glucuronidation by 3-MC” value ([1]; Ionomycin 5 μM, compound at 10 μM plus 3-MC 5 or 10 μM) did it give?
**A.** reinforces, dose dependently, the protective effect

**Q.** What about the “protection of neurons from Ionomycin-evoked cell death” value ([1]; Ionomycin 5 μM, compound at 10 μM) of the same molecule?
**A.** protects neurons from Ionomycin-evoked cell death

**Q.** And the “glutamate release by neurons” value ([2]; compound at 1 μM and 10 μM (lanes 4, 7))?
**A.** at both concentrations reduces the release of glutamate

**Q.** And the “glutamate release with glucuronidation by 3-MC” value ([2]; compound at 10 μM plus 3-MC 1 or 5 μM)?
**A.** reinforces, dose dependently, the decrease of glutamate

**Q.** And the “glutamate release by neurons” value ([2]; compound at 10 μM)?
**A.** reduces glutamate release

**Q.** And the “significance of the improved decrease of glutamate with 3-Methylcholanthrene” value ([2]; compound at 1 or 10 μM plus 3-Methylcholanthrene 5 μM (lanes 6, 9))?
**A.** statistically significant at the highest dose of 3-Methylcholanthrene

**Q.** Which “protection of neurons from 3-NP-evoked cell death” value [3] does the source give for `CN1C(=O)CN=C(c2ccccc2)c2cc(Cl)ccc21` [Diazepam] here?
**A.** protects neurons from 3-NP at all tested doses

From patent publication US20040014648A1, “Methods for the prevention and/or the treatment of neurological disorders” (FAUST PHARMACEUTICALS, priority 2002, published 2004)
